The record followed here is EPA's ToxValDB 9.5 (doi:10.2903/j.efsa.2010.1904).

What is called NOAEL is the highest dose or exposure tested at which no adverse effect was seen.

The test system of one series is Oncorhynchus mykiss. The settings on record: chronic/long-term; duration: 21 days.
A further series deals with Apis mellifera. As to conditions: acute; duration: 48 hours; oral; unspecified; mortality.
The next series deals with Oryctolagus sp. As to conditions: reproduction developmental; reproduction.
The next series has as its system Canidae. As to conditions: chronic; duration: 52 weeks; oral; Dog Other.
The next series relates to Daphnia magna. The settings on record: chronic/long-term; duration: 21 days.
A further series deals with Ictalurus punctatus. The settings on record: acute; duration: 96 hours; mortality.
The subject of another series is Anas platyrhynchos. The settings on record: oral, mortality.

Values after ≈ are worked out from the molar mass of the structure shown. Where only a bound is given, the exact number is not on record here.

Consider `N#Cc1sc2c(=O)c3ccccc3c(=O)c=2sc1C#N` [Dithianon], for which the LC50 in the series with Colinus virginianus (acute, oral, diet, mortality) was over 1200 mg/kg-day; in the series with Tagia sp. (acute, duration: 14 days, mortality), 578 mg/kg; with Ictalurus punctatus, 0.0143 µg/mL (≈ 0.0483 µM); with Anas platyrhynchos (short-term, feed), over 790 mg/kg-day. In addition, the LD50 in the series with Colinus virginianus (acute, oral, mortality) is 309 mg/kg-day; in the series with Rattus norvegicus (acute, oral, mortality), under 500 mg/kg-day; with Apis mellifera it was over 25.4 µg/piece; in the series with Anas platyrhynchos (acute, unspecified) it was over 2000 mg/kg-day. For the same compound, the NOEC in the series with Colinus virginianus (reproduction developmental, reproduction) was 22.8 mg/kg-day; in the series on Oncorhynchus mykiss it was 0.00046 mg/L; in the series with Tagia sp. (chronic/long-term, duration: 56 days, reproduction), 48 mg/kg; in the series with Daphnia magna, 0.0595 mg/L. The NOAEL worked out at 1 mg/kg-day in the series on Rattus norvegicus (chronic, histopathology: neoplastic); 12 mg/kg-day in the series on Rattus norvegicus (short-term, duration: 7 days, oral, histopathology: nonneoplastic); 12 mg/kg-day in the series on Rattus norvegicus (short-term, duration: 28 days, oral, histopathology: nonneoplastic); 25 mg/kg-day with Oryctolagus sp.; 1.6 mg/kg-day in the series on Canidae.
